In PubChem BioAssay (NCI):
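Each compound was tested at five concentrations against cells in 96-well plates for 48 hours. GI50 is the concentration that inhibits growth by half. At the TGI there is no net growth.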

Experiments:
Experiment in all cases: NCI anticancer screen, dose series, 48 h
ACHN renal = system: ACHN renal
HOP-62 NSCLC = system: HOP-62 NSCLC
HOP-92 NSCLC = system: HOP-92 NSCLC
SNB-78 CNS = system: SNB-78 CNS
CCRF-CEM leukemia = system: CCRF-CEM leukemia
LXFL 529 NSCLC = system: LXFL 529 NSCLC
SK-OV-3 ovarian = system: SK-OV-3 ovarian
LOX IMVI melanoma = system: LOX IMVI melanoma
M19-MEL melanoma = system: M19-MEL melanoma
IGROV1 ovarian = system: IGROV1 ovarian
DLD-1 colon = system: DLD-1 colon
MDA-MB-231 breast = system: MDA-MB-231 breast

SMILES	TGI (ACHN renal)	TGI (HOP-62 NSCLC)	TGI (HOP-92 NSCLC)	TGI (SNB-78 CNS)	TGI (CCRF-CEM leukemia)	TGI (LXFL 529 NSCLC)	TGI (SK-OV-3 ovarian)	TGI (LOX IMVI melanoma)	TGI (M19-MEL melanoma)	TGI (IGROV1 ovarian)	TGI (DLD-1 colon)	GI50 (ACHN renal)	GI50 (HOP-62 NSCLC)	GI50 (HOP-92 NSCLC)	GI50 (MDA-MB-231 breast)	TGI (MDA-MB-231 breast)	GI50 (CCRF-CEM leukemia)	GI50 (SK-OV-3 ovarian)	GI50 (LOX IMVI melanoma)	GI50 (IGROV1 ovarian)
CNC(=O)OCc1nc(S(C)=O)n(C)c1COC(=O)NC (centres undefined)	> 78.6 µM	> 100 µM	> 77.8 µM	> 92.1 µM	> 100 µM	> 51.8 µM	> 73.3 µM	> 100 µM	> 63.2 µM	> 82.1 µM	> 100 µM	–	–	–	–	–	–	–	–	–
CC1CC(=O)C(C(O)CC2CC(=O)N(c3ccccc3)C(=O)C2)C(C)C1 (centres undefined)	> 100 µM	> 100 µM	> 100 µM	> 100 µM	> 100 µM	> 100 µM	> 100 µM	> 100 µM	> 100 µM	> 100 µM	> 100 µM	–	–	–	–	–	–	–	–	–
COCCN1C2=CCCCC2=Nc2c(N)nc(N)nc21	> 100 µM	> 100 µM	> 100 µM	> 100 µM	> 100 µM	> 100 µM	> 100 µM	> 100 µM	> 100 µM	> 100 µM	> 100 µM	–	–	–	–	–	–	–	–	–
COc1cc2c(cc1OC)-c1c(cc(OC)c(OC)c1OC)C2=O	> 100 µM	> 100 µM	> 100 µM	–	> 100 µM	> 100 µM	> 100 µM	> 100 µM	> 100 µM	> 100 µM	> 100 µM	–	–	–	–	–	–	–	–	–
CN/N=C(\C)CC(=O)Nc1cccc(Cl)c1C	> 100 µM	> 100 µM	> 100 µM	> 100 µM	> 100 µM	> 100 µM	> 100 µM	> 100 µM	> 100 µM	> 100 µM	> 100 µM	–	–	–	–	–	–	–	–	–
Cc1ccccc1NC(=O)C(=O)Cc1nc2ccccc2s1	> 100 µM	> 100 µM	> 100 µM	> 100 µM	> 100 µM	> 100 µM	> 100 µM	> 100 µM	> 100 µM	> 100 µM	> 100 µM	–	–	–	–	–	–	–	–	–
O=C(O)C1Cc2nc[nH]c2CN1 (centres undefined)	> 100 µM	–	> 100 µM	> 100 µM	> 100 µM	> 100 µM	> 100 µM	> 100 µM	> 100 µM	> 100 µM	> 100 µM	–	–	–	–	–	–	–	–	–
CC(C)OCN1COCN=C1NC#N	> 100 µM	> 100 µM	> 100 µM	–	–	> 100 µM	> 100 µM	–	> 100 µM	> 100 µM	57.6 µM	–	–	–	–	–	–	–	–	–
COc1ccc(C(=O)C(C(=O)C(=O)Nc2nc3ccc(OC)cc3s2)c2ccc(OC)cc2)cc1 (centres undefined)	> 100 µM	> 100 µM	> 100 µM	> 100 µM	> 100 µM	> 100 µM	> 100 µM	> 100 µM	> 100 µM	> 100 µM	> 100 µM	–	–	–	–	–	–	–	–	–
COC1OC(C)C(OC(=O)C(C)(C)C)C(C)(O)C1O (centres undefined)	–	> 100 µM	> 100 µM	> 100 µM	> 100 µM	> 100 µM	–	> 100 µM	> 100 µM	> 100 µM	> 100 µM	–	–	–	–	–	–	–	–	–
Oc1cccc(C2SCc3nc4ccccc4n32)c1 (centres undefined)	> 100 µM	–	> 100 µM	> 100 µM	> 100 µM	> 100 µM	> 100 µM	–	–	–	> 100 µM	–	–	–	–	–	–	–	–	–
COc1ccc(-c2c(N)[n+]([O-])c3cc(C)c(C)cc3[n+]2[O-])cc1OC	> 100 µM	> 100 µM	–	> 100 µM	> 100 µM	> 100 µM	> 100 µM	> 100 µM	> 100 µM	> 100 µM	> 100 µM	–	–	–	–	–	–	–	–	–
CCCCCN(CCCCC)C(=O)[C@@H](CCC(=O)OCc1ccccc1)NC(=O)c1cc2ccccc2[nH]1	> 100 µM	> 100 µM	> 100 µM	> 100 µM	> 100 µM	> 100 µM	> 100 µM	> 100 µM	–	> 100 µM	> 100 µM	–	–	–	–	–	–	–	–	–
COc1cc(C2C(C(=O)O)=C(C)Oc3cc4c(cc32)OCO4)cc(OC)c1OC (centres undefined)	> 100 µM	–	> 100 µM	> 100 µM	> 100 µM	–	91.2 µM	> 100 µM	> 100 µM	> 100 µM	> 100 µM	–	–	–	–	–	–	–	–	–
CC(=O)Nc1ccc(/C=c2\sc3nnc(/C=C/c4ccccc4)n3c2=O)cc1	> 50 µM	> 50 µM	–	> 50 µM	> 50 µM	> 50 µM	> 50 µM	> 50 µM	> 50 µM	> 50 µM	> 50 µM	–	–	–	–	–	–	–	–	–
CC1CC2C3CC(F)C4=CC(=O)C=CC4(C)C3(F)C(O)CC2(C)C1(O)C(=O)CO (centres undefined)	> 100 µM	> 100 µM	> 100 µM	> 100 µM	> 100 µM	–	> 100 µM	> 100 µM	> 100 µM	> 100 µM	> 100 µM	–	–	–	–	–	–	–	–	–
CC(NC1CCC[C@H]1O)c1ccccc1 (mixture of isomers)	> 100 µM	> 100 µM	> 100 µM	> 100 µM	> 100 µM	–	> 100 µM	> 100 µM	> 100 µM	> 100 µM	–	–	–	–	–	–	–	–	–	–
CN(C)CCCC1(c2ccc(F)cc2)OCc2cc(-c3ccc4cc[nH]c4c3)ccc21 (centres undefined)	4.82 µM	3.71 µM	7.9 µM	–	7.12 µM	–	12.9 µM	3.27 µM	–	3.61 µM	–	2.12 µM	1.71 µM	2.28 µM	1.65 µM	3.22 µM	2.65 µM	3.38 µM	1.78 µM	1.73 µM
O=[N+]([O-])c1ccc2nc(N/N=C/c3ccc(O)cc3)sc2c1	> 100 µM	30.7 µM	8.96 µM	–	> 100 µM	–	48.9 µM	10.6 µM	–	> 100 µM	–	4.63 µM	8.82 µM	2.17 µM	6.06 µM	> 100 µM	3.28 µM	5.37 µM	3.08 µM	3.84 µM
COc1ccc(OC)c(CCc2cc(OC)c(OC)cc2C)c1	> 100 µM	> 100 µM	–	92.7 µM	> 100 µM	> 100 µM	98.4 µM	–	> 100 µM	> 100 µM	> 100 µM	–	–	–	–	–	–	–	–	–
O=C(C#Cc1c[nH]c(=O)[nH]c1=O)c1ccccc1	29.6 µM	36.1 µM	27 µM	38.5 µM	7.8 µM	–	62.9 µM	16.3 µM	27.1 µM	32.5 µM	23.4 µM	–	–	–	–	–	–	–	–	–
